Assay results published in PubChem BioAssay AID248 (DTP/NCI, 2004).
“And” between values parts separate entries of the source, which are not always exact repeats. Equal entries are not always repeated. Inconclusive results and toxic doses are left out. Cut-off read from the data, not from the text of the source: active = T/C of 150% or more; inactive = T/C below 125%.

Tested on: L1210 leukemia ip in BDF1 mice, survival T/C
Assay: NCI In Vivo Anticancer Drug Screen. Data for tumor model L1210 Leukemia (intraperitoneal) in B6D2F1 (BDF1) mice
Settings: endpoint: mean survival time, higher = longer survival
Summary of the method: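 Transplanted-tumor mice were given test agent; controls received vehicle only. Survival readings from the two groups were divided (treated over control).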

[1] = dose: 400.0 mg/kg/injection, schedule: Q04DX002 (ip), vehicle: saline with Tween-80
[2] = dose: 200.0 mg/kg/injection, schedule: Q04DX003 (ip), vehicle: saline
[3] = dose: 100.0 mg/kg/injection, schedule: Q01DX009 (ip), vehicle: Klucel (hydroxypropylcellulose) (HPC)
[4] = dose: 200.0 mg/kg/injection, schedule: Q01DX009 (ip), vehicle: Klucel (hydroxypropylcellulose) (HPC)
[5] = dose: 50.0 mg/kg/injection, schedule: Q01DX001 (ip), vehicle: carboxymethylcellulose (CMC)
[6] = dose: 100.0 mg/kg/injection, schedule: Q01DX001 (ip), vehicle: carboxymethylcellulose (CMC)
[7] = dose: 200.0 mg/kg/injection, schedule: Q01DX001 (ip), vehicle: carboxymethylcellulose (CMC)
[8] = dose: 100.0 mg/kg/injection, schedule: Q04DX003 (ip), vehicle: saline
[9] = dose: 400.0 mg/kg/injection, schedule: Q04DX003 (ip), vehicle: saline

Measured: T/C

[Si]c1ccc(-c2ccccc2)cc1
inactive: dose: 25.6 mg/kg/injection, schedule: Q04DX002 (ip), vehicle: saline with Tween-80 101 % of control | dose: 64.0 mg/kg/injection, schedule: Q04DX002 (ip), vehicle: saline with Tween-80 97 % of control | dose: 100.0 mg/kg/injection, schedule: Q04DX003 (ip), vehicle: saline with Tween-80 87 % of control | dose: 160.0 mg/kg/injection, schedule: Q04DX002 (ip), vehicle: saline with Tween-80 87 % of control | [1] 90 % of control

Nc1ccc2ccc(O)cc2c1
inactive: [2] 121 % of control

COC(=O)C1C(=O)C(C(=O)OC)C2C(C(=O)OC)C(=O)C(C(=O)OC)C12 (stereo not given)
inactive: dose: 100.0 mg/kg/injection, schedule: Q01DX001 (ip), vehicle: Klucel (hydroxypropylcellulose) (HPC) 104 % of control | [3] 93 % of control | dose: 100.0 mg/kg/injection, schedule: Q04DX003 (ip), vehicle: Klucel (hydroxypropylcellulose) (HPC) 97 % of control | dose: 200.0 mg/kg/injection, schedule: Q01DX001 (ip), vehicle: Klucel (hydroxypropylcellulose) (HPC) 101 % of control | [4] 95 % of control | dose: 200.0 mg/kg/injection, schedule: Q04DX003 (ip), vehicle: Klucel (hydroxypropylcellulose) (HPC) 96 % of control | dose: 400.0 mg/kg/injection, schedule: Q01DX001 (ip), vehicle: Klucel (hydroxypropylcellulose) (HPC) 103 % of control | dose: 400.0 mg/kg/injection, schedule: Q01DX009 (ip), vehicle: Klucel (hydroxypropylcellulose) (HPC) 98 % of control | dose: 400.0 mg/kg/injection, schedule: Q04DX003 (ip), vehicle: Klucel (hydroxypropylcellulose) (HPC) 102 % of control

c1ccc2c(c1)Sc1ccccc1S2
inactive: [5] 106 % of control | [6] 112 % of control | [7] 101 % of control | dose: 400.0 mg/kg/injection, schedule: Q01DX001 (ip), vehicle: carboxymethylcellulose (CMC) 104 % of control

C/C(=C\Cl)CN(C)S(=O)(=O)c1ccc(Br)cc1
inactive: dose: 100.0 mg/kg/injection, schedule: Q01DX001 (ip), vehicle: saline with Tween-80 100 % of control and 98 % of control | [3] 94 % of control | dose: 200.0 mg/kg/injection, schedule: Q01DX001 (ip), vehicle: saline with Tween-80 94 % of control and 95 % of control | [4] 89 % of control | dose: 400.0 mg/kg/injection, schedule: Q01DX001 (ip), vehicle: saline with Tween-80 96 % of control and 98 % of control

ClCCCCOCC1CCCO1 (stereo not given)
inactive: dose: 100.0 mg/kg/injection, schedule: Q01DX009 (ip), vehicle: saline with Tween-80 100 % of control | dose: 200.0 mg/kg/injection, schedule: Q01DX009 (ip), vehicle: saline with Tween-80 107 % of control

C=CCC(C)/C(C)=C(/C#N)C(=O)OCC (stereo not given)
inactive: dose: 75.0 mg/kg/injection, schedule: Q01DX001 (ip), vehicle: other 107 % of control | dose: 150.0 mg/kg/injection, schedule: Q01DX001 (ip), vehicle: other 100 % of control

O=P1(O)Cc2ccccc2-c2ccccc21
inactive: dose: 100.0 mg/kg/injection, schedule: Q01DX001 (ip), vehicle: other 96 % of control | dose: 200.0 mg/kg/injection, schedule: Q01DX001 (ip), vehicle: other 101 % of control | dose: 400.0 mg/kg/injection, schedule: Q01DX001 (ip), vehicle: other 98 % of control

C/C=C\c1ccc(OC(=O)Nc2ccc(Cl)cc2)c(OC)c1
inactive: dose: 100.0 mg/kg/injection, schedule: Q04DX002 (ip), vehicle: saline with Tween-80 100 % of control | dose: 200.0 mg/kg/injection, schedule: Q04DX002 (ip), vehicle: saline with Tween-80 100 % of control | [1] 96 % of control

O=S(=O)(/C=C\c1ccccc1)N1CCCc2ccccc21
inactive: dose: 100.0 mg/kg/injection, schedule: Q01DX001 (ip), vehicle: saline 106 % of control | [8] 98 % of control | dose: 200.0 mg/kg/injection, schedule: Q01DX001 (ip), vehicle: saline 98 % of control | [2] 102 % of control | dose: 400.0 mg/kg/injection, schedule: Q01DX001 (ip), vehicle: saline 101 % of control | [9] 98 % of control

CC1(C)CC(OP(=O)(OC2CC(C)(C)N(O)C(C)(C)C2)OC2CC(C)(C)N(O)C(C)(C)C2)CC(C)(C)N1O
inactive: dose: 50.0 mg/kg/injection, schedule: Q01DX001 (ip), vehicle: water 104 % of control | dose: 100.0 mg/kg/injection, schedule: Q01DX001 (ip), vehicle: water 94 % of control and 97 % of control | dose: 200.0 mg/kg/injection, schedule: Q01DX001 (ip), vehicle: water 103 % of control | dose: 400.0 mg/kg/injection, schedule: Q01DX001 (ip), vehicle: water 113 % of control

CC12CC3CC(C)(C1)CC(CN=C(N)CCl)(C3)C2
inactive: dose: 6.25 mg/kg/injection, schedule: Q01DX009 (ip), vehicle: Klucel (hydroxypropylcellulose) (HPC) 106 % of control | dose: 12.5 mg/kg/injection, schedule: Q01DX009 (ip), vehicle: Klucel (hydroxypropylcellulose) (HPC) 100 % of control | dose: 12.5 mg/kg/injection, schedule: Q04DX002 (ip), vehicle: Klucel (hydroxypropylcellulose) (HPC) 96 % of control | dose: 25.0 mg/kg/injection, schedule: Q04DX002 (ip), vehicle: Klucel (hydroxypropylcellulose) (HPC) 96 % of control

O=C1c2cc([N+](=O)[O-])ccc2-c2c1cccc2[N+](=O)[O-]
inactive: dose: 18.75 mg/kg/injection, schedule: Q01DX001 (ip), vehicle: Klucel (hydroxypropylcellulose) (HPC) 96 % of control | dose: 37.5 mg/kg/injection, schedule: Q01DX001 (ip), vehicle: Klucel (hydroxypropylcellulose) (HPC) 91 % of control | dose: 75.0 mg/kg/injection, schedule: Q01DX001 (ip), vehicle: Klucel (hydroxypropylcellulose) (HPC) 96 % of control | dose: 150.0 mg/kg/injection, schedule: Q01DX001 (ip), vehicle: Klucel (hydroxypropylcellulose) (HPC) 98 % of control | dose: 300.0 mg/kg/injection, schedule: Q01DX001 (ip), vehicle: Klucel (hydroxypropylcellulose) (HPC) 87 % of control

ClCN(CCl)CCl
inactive: [5] 102 % of control | [6] 94 % of control | [7] 105 % of control

CC[n+]1ccc2cc(OC)c(OC)cc2c1Cc1ccc(OC)c(OC)c1
inactive: dose: 25.0 mg/kg/injection, schedule: Q01DX009 (ip), vehicle: saline 94 % of control | dose: 50.0 mg/kg/injection, schedule: Q01DX009 (ip), vehicle: saline 115 % of control | [8] 98 % of control

O=C1/C(=C/c2ccccc2)CCC2C1CCCC21OCCO1 (stereo not given)
inactive: dose: 75.0 mg/kg/injection, schedule: Q01DX001 (ip), vehicle: saline 97 % of control | dose: 75.0 mg/kg/injection, schedule: Q04DX003 (ip), vehicle: saline 100 % of control | dose: 150.0 mg/kg/injection, schedule: Q01DX001 (ip), vehicle: saline 95 % of control | dose: 150.0 mg/kg/injection, schedule: Q04DX003 (ip), vehicle: saline 103 % of control | dose: 300.0 mg/kg/injection, schedule: Q01DX001 (ip), vehicle: saline 107 % of control | dose: 300.0 mg/kg/injection, schedule: Q04DX003 (ip), vehicle: saline 101 % of control

CCC(Cc1ccccc1Br)C1=NC(C)(C)CO1 (stereo not given)
inactive: dose: 100.0 mg/kg/injection, schedule: Q01DX009 (ip), vehicle: saline 90 % of control | [8] 105 % of control | dose: 200.0 mg/kg/injection, schedule: Q01DX009 (ip), vehicle: saline 90 % of control | [2] 107 % of control | dose: 400.0 mg/kg/injection, schedule: Q01DX009 (ip), vehicle: saline 106 % of control | [9] 100 % of control

O=C(Nc1ccc(C(Cl)(Cl)Cl)cc1)Nc1cc(Cl)ccc1Cl
inactive: dose: 25.0 mg/kg/injection, schedule: Q01DX009 (ip), vehicle: other 109 % of control | dose: 50.0 mg/kg/injection, schedule: Q01DX009 (ip), vehicle: other 93 % of control | [3] 93 % of control | dose: 100.0 mg/kg/injection, schedule: Q01DX009 (ip), vehicle: other 95 % of control
